Series [1] in a line: mRNA encapsulation efficiency of LNP by Ribogreen assay. The settings on record: LNP: 50% cationic lipid, 38.5% cholesterol, 10% DSPC, 1.5% DMG-PEG2000; Ffluc mRNA. In kind it is physicochemical. Summed up:
(§1)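 LNPs of cationic lipid/cholesterol/DSPC/DMG-PEG2000 at 50/38.5/10/1.5 mol% in ethanol, mixed with Ffluc mRNA at 0.2 mg/mL in 10 mM pH 4.0 citrate via T-mixer at 40 mL/min. Dialyzed overnight against 50 mM Tris-buffered saline pH 7.4 and sieved; PDI by dynamic light scattering, encapsulation by Ribogreen.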

A short description of series [2]: LNP size and PDI by dynamic laser light scattering. In kind it is physicochemical. The settings on record: LNP: 50% cationic lipid, 38.5% cholesterol, 10% DSPC, 1.5% DMG-PEG2000; Ffluc mRNA. The gist of the method: as §1
The subject of series [3] is mice. In words: In vivo delivery of Ffluc mRNA LNP in mice, intramuscular administration, luminescence relative to MC3. Also noted: species or system mice (female Balb/C). Particulars: fold change in luminescence intensity relative to MC3; 50 μL of 0.1 mg/mL mRNA LNP into right thigh; 6 h after injection. The method, then:
The prepared encapsulation solution was applied to mice in the following manner, and its delivery efficiency in mice was tested. Among them, DLin-MC3-DMA (MC3) was a cationic liposome for delivering small nucleic acids that was approved by the FDA for marketing in 2018, which has high nucleic acid drug delivery efficiency and biosafety, and was usually used as the industry gold standard in the screening process of cationic lipids. In the evaluation of mice experiments, the ratio of nucleic acid delivery efficiency normalized to MC3 was greater than 0.1, which was considered to be a cationic lipid with high delivery efficiency.
The LNP solution was diluted with 50 mM TBS, pH 7.4 to a concentration of 0.1 mg/mL mRNA.
2. The mice involved in this study were female Balb/C, weighing 18-22 g, 6-8 weeks old, with 5 mice in each group.
3. The dosing solution was kept at 4° C. prior to injection.
4. 50 μL of LNP solution was injected into the right thigh of the mice.
5. The mice were injected intraperitoneally with 200 μL of 1.5 mg/mL D-luciferin solution 6 h after injection.
6. The in vivo luminescence images of the mice were obtained using the IVIS system (Aniview).
7. The luminescence intensity of each mice was measured using Aniview software.
8. MC3 lipid nanoparticles were used as a positive control. The in vivo efficacy of each cationic lipid tested was recorded as the fold change in luminescence intensity relative to MC3 (ratio normalized to MC3).

In series [4] the test system is mice. In words: In vivo delivery of Ffluc mRNA LNP in mice, intravenous administration, luminescence relative to MC3. Also noted: species or system mice (female Balb/C). Particulars: fold change in luminescence intensity relative to MC3; 0.06 mg/kg tail vein; 6 h after injection. Summed up:
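Female Balb/C mice (18-22 g, 6-8 weeks, n=5) received Ffluc mRNA LNP at 0.06 mg/kg by tail vein in 50 mM TBS pH 7.4. Six hours later, intraperitoneal D-luciferin was given and whole-body luminescence imaged, with each lipid reported as fold change relative to MC3 LNP.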

Consider `CCCCCCCCCC/C(=C/C(=O)OCCCCCCN(CCCO)CCCCCCOC(=O)/C=C(\CCC)CCCCCCCCCC)CCC` [CPL-062-01, ((3-hydroxypropyl)azanediyl)bis(hexane-6,1-diyl) (2E,2′E)-bis(3-propyltridec-2-enoate)], for which the “Encapsulation Rate” value in series [1] is on record as 98%. In series [2], the PDI is recorded as 0.0828 and the “Size (nm)” value is reported as 67.12 nm. Further, the “In Vivo Efficacy Normalized To Mc3 In Mice (Intramuscular Injection)” value in the series on mice [3] stood at 1.06. The “In Vivo Efficacy Normalized To Mc3 In Mice (Intravenous Injection)” value with mice [4] is 2.21.
For the compound `CCCCCCCCCC/C(=C/C(=O)OCCCCCCCN(CCCO)CCCCCCCOC(=O)/C=C(\CCCCC)CCCCCCCCCC)CCCCC` [CPL-092-01, ((3-hydroxypropyl)azanediyl)di(heptane-7,1-diyl) (2E,2′E)-di(3-pentyltridec-2-enoate)], in series [1], the “Encapsulation Rate” value worked out at 97%. Further, in series [2], the PDI amounted to 0.21 and the “Size (nm)” value stood at 98.6 nm. Also, the “In Vivo Efficacy Normalized To Mc3 In Mice (Intramuscular Injection)” value in the series on mice [3] came to 2.20. Besides, the “In Vivo Efficacy Normalized To Mc3 In Mice (Intravenous Injection)” value with mice [4] is 8.96.
For the compound `CCCCCC/C(=C/C(=O)OCCCCCCCCN(CCCCO)CCCCCCCCOC(=O)/C=C(\CCCC)CCCCCC)CCCC` [CPL-457-01, ((4-hydroxybutyl)azanediyl)bis(octane-8,1-diyl) (2E,2′E)-bis(3-butylnon-2-enoate)], the “Encapsulation Rate” value in series [1] came out at 90%. Also, in series [2], the PDI was 0.078 and the “Size (nm)” value came out at 73 nm. Further, in the series on mice [3], the “In Vivo Efficacy Normalized To Mc3 In Mice (Intramuscular Injection)” value was determined as 12.13. In addition, the “In Vivo Efficacy Normalized To Mc3 In Mice (Intravenous Injection)” value in the series on mice [4] came out at 5.49.
For `CCCCCCCCCC/C(=C\C(=O)OCCCCCCCN(CCCO)CCCCCCCOC(=O)/C=C(/CCCCCCCC)CCCCCCCCCC)CCCCCCCC` [CPL-101, ((3-hydroxypropyl)azanediyl)bis(heptane-7,1-diyl)(2Z,2′Z)-bis(3-octyltridec-2-enoate)] the same measures were 95%, 0.0791, 69.38 nm, 1.76 and 2.90.
The corresponding values for `CCCCCCC/C(=C/C(=O)OCCCCCCN(CCCO)CCCCCCOC(=O)/C=C(\CCCC)CCCCCCC)CCCC` [CPL-074, ((3-hydroxypropyl)azanediyl)bis(hexane-6,1-diyl) (2E,2′E)-bis(3-butyldec-2-enoate)] are 99%, 0.3691, 95.7 nm, 7.93 and 2.40.
For `CCCCCCC(=CC(=O)OCCCCCCN(CCCO)CCCCCCOC(=O)C=C(CCCCCC)CCCCCC)CCCCCC` [CPL-071, ((3-hydroxypropyl)azanediyl)bis(hexane-6,1-diyl) (2E,2′E)-bis(3-hexylnon-2-enoate)] the same measures were 92%, 0.1733, 88.06 nm, 7.81 and 2.05.
With `CCCCCCCCCC/C(=C/C(=O)OCCCCCCCCCCCN(CCCO)CCCCCCCCCCCOC(=O)/C=C(\CCCCC)CCCCCCCCCC)CCCCC` [CPL-180-01, ((3-hydroxypropyl)azanediyl)bis(undecane-11,1-diyl) (2E,2′E)-bis(3-pentyltridec-2-enoate)], in series [1], the “Encapsulation Rate” value is 86%. In series [2], the PDI is on record as 0.1334 and the “Size (nm)” value amounted to 66.8 nm. The “In Vivo Efficacy Normalized To Mc3 In Mice (Intramuscular Injection)” value in the series with mice [3] turned out to be 0.72. Further, the “In Vivo Efficacy Normalized To Mc3 In Mice (Intravenous Injection)” value with mice [4] was found to be 9.31.
For `CCCCC/C(=C/C(=O)OCCCCCCCCCN(CCCO)CCCCCCCCCOC(=O)/C=C(\CCCC)CCCCC)CCCC` [CPL-133-01, ((3-hydroxypropyl)azanediyl)bis(nonane-9,1-diyl) (2E,2′E)-bis(3-butyloct-2-enoate)] the same measures were 97%, 0.0569, 80.25 nm, 6.61 and 3.54.
For `CCCCCCCCCC/C(=C/C(=O)OCCCCCCN(CCCO)CCCCCCOC(=O)/C=C(\CCCCCCCC)CCCCCCCCCC)CCCCCCCC` [CPL-079, ((3-hydroxypropyl)azanediyl)bis(hexane-6,1-diyl) (2E,2′E)-bis(3-octyltridec-2-enoate)] the same measures were 94%, 0.1557, 94.46 nm, 1.30 and 4.95.
The corresponding values for `CCCCCCCC/C(=C/C(=O)OCCCCCCCCN(CCCO)CCCCCCCCOC(=O)/C=C(\CCCCC)CCCCCCCC)CCCCC` [CPL-113-01, ((3-hydroxypropyl)azanediyl)bis(octane-8,1-diyl) (2E,2′E)-bis(3-pentylundec-2-enoate)] are 96%, 0.24, 97.7 nm, 1.65 and 2.52.
For `CCCCCC/C(=C\C(=O)OCCCCCCCCCCN(CCCO)CCCCCCCCCCOC(=O)/C=C(/CCCC)CCCCCC)CCCC` [CPL-152, ((3-hydroxypropyl)azanediyl)bis(decane-10,1-diyl) (2Z,2′Z)-bis(3-butylnon-2-enoate)], in series [1], the “Encapsulation Rate” value was 95%. Besides, in series [2], the PDI is recorded as 0.05 and the “Size (nm)” value is 72.18 nm. The “In Vivo Efficacy Normalized To Mc3 In Mice (Intramuscular Injection)” value in the series on mice [3] amounted to 2.62. In addition, the “In Vivo Efficacy Normalized To Mc3 In Mice (Intravenous Injection)” value in the series on mice [4] turned out to be 2.03.
For `CCCCCC/C(=C/C(=O)OCCCCCCCCCCN(CCCO)CCCCCCCCCCOC(=O)/C=C(\CCC)CCCCCC)CCC` [CPL-148, ((3-hydroxypropyl)azanediyl)bis(decane-10,1-diyl) (2E,2′E)-bis(3-propylnon-2-enoate)] the same measures were 93%, 0.1437, 90.31 nm, 2.56 and 2.15.
Consider `CCCCCC/C(=C/C(=O)OCCCCCCCCCCCN(CCCO)CCCCCCCCCCCOC(=O)/C=C(\CCCC)CCCCCC)CCCC` [CPL-174-01, ((3-hydroxypropyl)azanediyl)bis(undecane-11,1-diyl) (2E,2′E)-bis(3-butylnon-2-enoate)], for which the “Encapsulation Rate” value in series [1] turned out to be 97%. Further, in series [2], the PDI is 0.18 and the “Size (nm)” value turned out to be 112 nm. The “In Vivo Efficacy Normalized To Mc3 In Mice (Intramuscular Injection)” value in the series with mice [3] is 1.20. Moreover, the “In Vivo Efficacy Normalized To Mc3 In Mice (Intravenous Injection)” value in the series with mice [4] is reported as 2.32.
For `CCCCCCCCCC/C(=C\C(=O)OCCCCCCN(CCCO)CCCCCCOC(=O)/C=C(/CCCCC)CCCCCCCCCC)CCCCC` [CPL-070, ((3-hydroxypropyl)azanediyl)bis(hexane-6,1-diyl) (2Z,2′Z)-bis(3-pentyltridec-2-enoate)] the same measures were 95%, 0.2173, 100.4 nm, 1.85 and 3.74.

(Values after patent US20250214925A1, “CATIONIC LIPID, LIPOSOME, LIPID NANOPARTICLE, AND USE” (CARCELL BIOPHARMA LTD., priority 2022, published 2025).)
